Patent publication US10597391B2, “Urea-containing isoxazole derivatives as FXR agonists and methods of use thereof” (Enanta Pharmaceuticals, Inc., priority 2016, dated 2020)
Where “and” joins values, the source holds several entries; their conditions need not be identical. Identical values can stand only once. Like-named read-outs stand apart in the source and are kept apart here.

Target: T1, human FXR (NR1H4) (Homo sapiens, UniProt Q96RI1)
T1 sequence (Q96RI1 1-486): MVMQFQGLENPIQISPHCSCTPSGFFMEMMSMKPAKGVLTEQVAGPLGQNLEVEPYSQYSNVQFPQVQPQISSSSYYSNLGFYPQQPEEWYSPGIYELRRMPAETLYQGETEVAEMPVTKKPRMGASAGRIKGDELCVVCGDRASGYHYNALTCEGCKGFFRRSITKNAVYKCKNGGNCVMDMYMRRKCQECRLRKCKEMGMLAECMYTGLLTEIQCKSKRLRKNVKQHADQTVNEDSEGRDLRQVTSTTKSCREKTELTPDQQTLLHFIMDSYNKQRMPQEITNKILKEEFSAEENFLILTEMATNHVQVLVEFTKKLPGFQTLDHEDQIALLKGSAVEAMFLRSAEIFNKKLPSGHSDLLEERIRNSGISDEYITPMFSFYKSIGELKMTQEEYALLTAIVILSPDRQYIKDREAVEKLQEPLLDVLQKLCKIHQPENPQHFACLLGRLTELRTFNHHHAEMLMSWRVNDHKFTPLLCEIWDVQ
Experiment: Human FXR (NR1H4) Assay: Gal4 promoter driven luciferase reporter transactivation in CHO cells (Indigo Bioscience kit IB00601)
Assay type: cell-based
Details: for Emax: CHO, read-out: Efficacy (%); for EC50: Human FXR (NR1H4) reporter assay in CHO cells
From the text: Human FXR (NR1H4) Assay Determination of a ligand mediated Gal4 promoter driven transactivation to quantify ligand binding mediated activation of FXR. FXR Reporter Assay kit purchased from Indigo Bioscience (Catalogue number: IB00601) to determine the potency and efficacy of compounds that can induce FXR activation. The principle application of this reporter assay system is to quantify functional activity of human FXR. The assay utilizes non-human mammalian cells, CHO (Chinese hamster ovary) cells engineered to express human NR1H4 protein (referred to as FXR). Reporter cells also incorporate the cDNA encoding beetle luciferase which catalyzes the substrates and yields photon emission. Luminescence intensity of the reaction is quantified using a plate-reading luminometer, Envision. Reporter Cells include the luciferase reporter gene functionally linked to an FXR responsive promoter. Thus, quantifying changes in luciferase expression in the treated reporter cells provides a sensitive surrogate measure of the changes in FXR activity. […] The assay is according to the manufacturer's instructions. […] Retrieve Reporter Cells from −80° C. storage. Perform a rapid thaw of the frozen cells by transferring a 10 ml volume of 37° C. cell recovery medium into the tube of frozen cells. […] Retrieve the tube of Reporter Cell Suspension from the water bath. […] Dispense 90 μl of cell suspension into each well of the 96-well Assay Plate. Transfer the plate into 37° C. incubator, allowing the cells adherent to the bottom of the well. Dilute compounds in Dilution Plate (DP), and administrate to cells at Assay Plate (AP). […] Cells were incubated for additional 22 hours before luciferase activities were measured. Thirty minutes before intending to quantify FXR activity, remove Detection Substrate and Detection Buffer from the refrigerator and place them in a low-light area so that they may equilibrate to room temperature. Remove the plate's lid and discard all media contents by ejecting it into an appropriate waste container. Gently tap the inverted plate onto a clean absorbent paper towel to remove residual droplets. Cells will remain tightly adhered to well bottoms. Add 100 μl of luciferase detection reagent to each well of the assay plate. Allow the assay plate to rest at room temperature for at least 5 minutes following the addition of LDR. Set the instrument (Envision) to perform a single 5 second “plate shake” prior to reading the first assay well. Read time may be 0.5 second (500 mSec) per well.

[1] = efficacy normalized to CDCA set as 100%

O=C(Nc1ccccc1)N1C2CCC1CC(OCc1c(-c3c(Cl)cccc3Cl)noc1C1CC1)C2 (stereo not drawn) [Example 696]
Emax [1]: 246%
EC50 (potency range, read-out: EC50): < 10 nM

CC(C)S(=O)(=O)NC(=O)c1ccc(NC(=O)N2C3CCC2CC(OCc2c(-c4ccccc4OC(F)(F)F)noc2C2CC2)C3)cc1 (stereo not drawn) [Example 754]
Emax [1]: 236%
EC50 (potency range, read-out: EC50): 100 to 1000 nM

Cn1nnc(-c2cccc(NC(=O)N3C4CCC3CC(OCc3c(-c5c(Cl)cccc5Cl)noc3C3CC3)C4)c2)n1 (stereo not drawn) [Example 187]
EC50 (potency range, read-out: EC50): 10 to 100 nM

COC(=O)c1ccc(NC(=O)N2C3CCC2CC(OCc2c(-c4ccccc4OC(F)(F)F)noc2C2CC2)C3)nc1 (stereo not drawn) [Example 764]
Emax [1]: 230%
EC50 (potency range, read-out: EC50): 100 to 1000 nM

O=C(Nc1ccc2ncccc2c1)N1C2CCC1CC(OCc1c(-c3c(Cl)cccc3Cl)noc1C1CC1)C2 (stereo not drawn) [Example 22]
EC50 (potency range, read-out: EC50): < 10 nM

COC(=O)c1ccc2nc(NC(=O)N3C4CCC3CC(OCc3c(-c5c(Cl)cccc5Cl)noc3C3CC3)C4)ccc2c1 (stereo not drawn) [Example 785]
Emax [1]: 46%
EC50 (potency range, read-out: EC50): 10 to 100 nM

COC(=O)c1ccc(NC(=O)N2C3CCC2CC(OCc2c(-c4c(Cl)cccc4Cl)noc2C2CC2)C3)cc1-c1ccc(OC)nc1 (stereo not drawn) [Example 784]
Emax [1]: 102%
EC50 (potency range, read-out: EC50): < 10 nM

O=C(N[C@H]1CC[C@H](C(=O)O)CC1)N1C2CCC1CC(OCc1c(-c3ccccc3OC(F)(F)F)noc1C1CC1)C2 (stereo partly drawn) [Example 266]
EC50 (potency range, read-out: EC50): 100 to 1000 nM

O=C(O)c1ccc2c(c1)N(C(=O)N1C3CCC1CC(OCc1c(-c4ccccc4OC(F)(F)F)noc1C1CC1)C3)CCC2 (stereo not drawn) [Example 596]
Emax: 48%
EC50 (potency range, read-out: EC50): > 1000 nM

CCOc1cc(C(=O)O)ccc1NC(=O)N1C2CCC1CC(OCc1c(-c3c(Cl)cccc3Cl)noc1C1CC1)C2 (stereo not drawn) [Example 720]
Emax [1]: 171%
EC50 (potency range, read-out: EC50): < 10 nM

COc1c(NC(=O)N2C3CCC2CC(OCc2c(-c4ccccc4OC(F)(F)F)noc2C2CC2)C3)cccc1C(=O)OC(C)(C)C (stereo not drawn) [Example 760]
Emax [1]: 180%
EC50 (potency range, read-out: EC50): > 1000 nM

N#Cc1cccc(NC(=O)N2C3CCC2CC(OCc2c(-c4c(Cl)cccc4Cl)noc2C2CC2)C3)c1 (stereo not drawn) [Example 3]
EC50 (potency range, read-out: EC50): < 10 nM

O=C(Nc1ccc(C(F)(F)F)cc1)N1C2CCC1CC(OCc1c(-c3c(Cl)cccc3Cl)noc1C1CC1)C2 (stereo not drawn) [Example 8]
EC50 (potency range, read-out: EC50): 100 to 1000 nM

CCOC(=O)c1cnc2ccc(NC(=O)N3C4CCC3CC(OCc3c(-c5c(Cl)cccc5Cl)noc3C3CC3)C4)cc2c1 (stereo not drawn) [Example 775]
Emax [1]: 82%
EC50 (potency range, read-out: EC50): < 10 nM

COc1cc(C(=O)O)ccc1NC(=O)N1C2CCC1CC(OCc1c(-c3ccccc3OC(F)(F)F)noc1C1CC1)C2 (stereo not drawn) [Example 238]
EC50 (potency range, read-out: EC50): < 10 nM

COC(=O)c1ccc2c(c1)CN(C(=O)N1C3CCC1CC(OCc1c(-c4ccccc4OC(F)(F)F)noc1C1CC1)C3)C2 (stereo not drawn) [Example 597]
Emax: 53%
EC50 (EC50, potency range): 100 to 1000 nM

CCOC(=O)c1cccc(NC(=O)N2C3CCC2CC(NCc2c(-c4c(Cl)cccc4Cl)noc2C2CC2)C3)c1 (stereo not drawn) [Example 827]
Emax [1]: 110%
EC50 (potency range, read-out: EC50): < 10 nM

O=C(NCc1cccc(-c2ccccc2)c1)N1C2CCC1CC(OCc1c(-c3c(Cl)cccc3Cl)noc1C1CC1)C2 (stereo not drawn) [Example 735]
Emax [1]: 136%
EC50 (potency range, read-out: EC50): 100 to 1000 nM

O=C(O)c1ccc(NC(=O)N2C3CCC2CC(OCc2c(C4CCC5(CC4)CC5)noc2C2CC2)C3)c(F)c1 (stereo not drawn) [Example 285]
EC50 (potency range, read-out: EC50): 10 to 100 nM

O=C(O)c1ccc(NC(=O)N2C3CCC2CC(OCc2c(-c4ccccc4C(F)(F)F)noc2C2CC2)C3)c(C(F)(F)F)c1 (stereo not drawn) [Example 817]
Emax [1]: 20%
EC50 (potency range, read-out: EC50): 10 to 100 nM

COc1c(NC(=O)N2C3CCC2CC(OCc2c(-c4ccccc4OC(F)(F)F)noc2C2CC2)C3)cccc1C(=O)O (stereo not drawn) [Example 761]
Emax [1]: 105%
EC50 (potency range, read-out: EC50): > 1000 nM

CCOC(=O)c1ccnc(NC(=O)N2C3CCC2CC(OCc2c(-c4ccccc4OC(F)(F)F)noc2C2CC2)C3)c1 (stereo not drawn) [Example 765]
Emax [1]: 272%
EC50 (potency range, read-out: EC50): 10 to 100 nM

O=C(O)CNC(=O)c1ccc(NC(=O)N2C3CCC2CC(OCc2c(-c4c(Cl)cccc4Cl)noc2C2CC2)C3)c(F)c1 (stereo not drawn) [Example 783]
Emax [1]: 0%
EC50 (potency range, read-out: EC50): 100 to 1000 nM

CC(=O)N1CC=C(c2cccc(NC(=O)N3C4CCC3CC(OCc3c(-c5c(Cl)cccc5Cl)noc3C3CC3)C4)c2)CC1 (stereo not drawn) [Example 713]
Emax [1]: 162%
EC50 (potency range, read-out: EC50): < 10 nM

CN(C)S(=O)(=O)NC(=O)c1ccc(NC(=O)N2C3CCC2CC(OCc2c(-c4ccccc4OC(F)(F)F)noc2C2CC2)C3)cc1 (stereo not drawn) [Example 753]
Emax [1]: 217%
EC50 (potency range, read-out: EC50): 10 to 100 nM

O=C(O)c1ccc2c(c1)CCCN2C(=O)N1C2CCC1CC(OCc1c(-c3ccccc3OC(F)(F)F)noc1C1CC1)C2 (stereo not drawn) [Example 594]
Emax: 49%
EC50 (potency range, read-out: EC50): 100 to 1000 nM

O=C(c1cccc(NC(=O)N2C3CCC2CC(OCc2c(-c4c(Cl)cccc4Cl)noc2C2CC2)C3)c1)N1CCOCC1 (stereo not drawn) [Example 214]
EC50 (potency range, read-out: EC50): 10 to 100 nM

CCOC(=O)c1ccc(NC(=O)N2C3CCC2CC(NCc2c(-c4c(Cl)cccc4Cl)noc2C2CC2)C3)cc1 (stereo not drawn) [Example 825]
Emax [1]: 104%
EC50 (potency range, read-out: EC50): 10 to 100 nM

O=C(Nc1ccccc1C(F)(F)F)N1C2CCC1CC(OCc1c(-c3c(Cl)cccc3Cl)noc1C1CC1)C2 (stereo not drawn) [Example 6]
EC50 (potency range, read-out: EC50): 100 to 1000 nM

O=C(O)c1cc(NC(=O)N2C3CCC2CC(OCc2c(-c4c(Cl)cccc4Cl)noc2C2CC2)C3)cc(-c2cccnc2)c1 (stereo not drawn) [Example 727]
EC50 (potency range, read-out: EC50): 10 to 100 nM and < 10 nM

CCOC(=O)c1ccc(NC(=O)N2C3CCC2CC(OCc2c(-c4c(Cl)cccc4Cl)noc2C2CC2)C3)cc1-c1cncnc1 (stereo not drawn) [Example 778]
Emax [1]: 248%
EC50 (potency range, read-out: EC50): < 10 nM

O=C(O)c1ccc(NC(=O)N2C3CCC2CC(NCc2c(-c4c(Cl)cccc4Cl)noc2C2CC2)C3)cc1 (stereo not drawn) [Example 826]
Emax [1]: 63%
EC50 (potency range, read-out: EC50): 10 to 100 nM

CCOc1cc(C(=O)O)ccc1NC(=O)N1C2CCC1CC(OCc1c(-c3ccccc3OC(F)(F)F)noc1C1CC1)C2 (stereo not drawn) [Example 823]
Emax [1]: 112%
EC50 (potency range, read-out: EC50): 10 to 100 nM

CS(=O)(=O)NC(=O)c1cccc(NC(=O)N2C3CCC2CC(OCc2c(-c4ccccc4OC(F)(F)F)noc2C2CC2)C3)c1 (stereo not drawn) [Example 262]
EC50 (potency range, read-out: EC50): > 1000 nM

COC(=O)c1ccc(NC(=O)N2C3CCC2CC(OCc2c(-c4c(Cl)cccc4Cl)noc2C2CC2)C3)nc1 (stereo not drawn) [Example 786]
Emax [1]: 44%
EC50 (potency range, read-out: EC50): 10 to 100 nM

COC(=O)c1ccc(OC)c(NC(=O)N2C3CCC2CC(OCc2c(-c4c(Cl)cccc4Cl)noc2C2CC2)C3)c1 (stereo not drawn) [Example 724]
Emax [1]: 137%
EC50 (potency range, read-out: EC50): 10 to 100 nM

O=C(O)c1ccc2nc(NC(=O)N3C4CCC3CC(OCc3c(-c5c(Cl)cccc5Cl)noc3C3CC3)C4)sc2c1 (stereo not drawn) [Example 805]
Emax [1]: 104%
EC50 (potency range, read-out: EC50): 10 to 100 nM

O=C(O)c1ccccc1NC(=O)N1C2CCC1CC(OCc1c(-c3ccccc3OC(F)(F)F)noc1C1CC1)C2 (stereo not drawn) [Example 744]
Emax [1]: 165%
EC50 (potency range, read-out: EC50): > 1000 nM

COC(=O)c1ccc(NC(=O)N2C3CCC2CC(OCc2c(-c4c(Cl)cccc4Cl)noc2C2CC2)C3)c(OC(C)C)c1 (stereo not drawn) [Example 719]
Emax [1]: 104%
EC50 (potency range, read-out: EC50): 100 to 1000 nM

O=C(Nc1ccncc1)N1C2CCC1CC(OCc1c(-c3c(Cl)cccc3Cl)noc1C1CC1)C2 (stereo not drawn) [Example 17]
EC50 (potency range, read-out: EC50): 10 to 100 nM

O=C(NCc1cccc(C(F)(F)F)c1)N1C2CCC1CC(OCc1c(-c3c(Cl)cccc3Cl)noc1C1CC1)C2 (stereo not drawn) [Example 734]
Emax [1]: 172%
EC50 (potency range, read-out: EC50): 10 to 100 nM

O=C(O)c1ccc(NC(=O)N2C3CCC2CC(OCc2c(-c4ccccc4C(F)(F)F)noc2C2CC2)C3)c(F)c1 (stereo not drawn) [Example 807]
Emax [1]: 42%
EC50 (potency range, read-out: EC50): 10 to 100 nM

O=C(O)c1ccc2nc(NC(=O)N3C4CCC3CC(OCc3c(-c5c(Cl)cccc5Cl)noc3C3CC3)C4)ccc2c1 (stereo not drawn) [Example 789]
Emax [1]: 57%
EC50 (potency range, read-out: EC50): 10 to 100 nM

COc1ccc(C(=O)O)cc1NC(=O)N1C2CCC1CC(OCc1c(-c3ccccc3OC(F)(F)F)noc1C1CC1)C2 (stereo not drawn) [Example 750]
Emax [1]: 76%
EC50 (potency range, read-out: EC50): 100 to 1000 nM

CCOC(=O)c1cccnc1NC(=O)N1C2CCC1CC(OCc1c(-c3ccccc3OC(F)(F)F)noc1C1CC1)C2 (stereo not drawn) [Example 767]
Emax [1]: 136%
EC50 (potency range, read-out: EC50): 100 to 1000 nM
